In patent US20080090834A1, “SELECTIVE AZOLE PDE10A INHIBITOR COMPOUNDS” (Pfizer Inc, priority 2006, published 2008):
Counter-ions that a name gives are not always drawn.

Target: T1, cloned rat PDE10A full-length enzyme (Rattus norvegicus, UniProt Q9QYJ6)
T1 construct: cloned rat PDE10A full-length enzyme grown in transfected Sf9 insect cells; made in house; host or cells: Sf9 insect cells
T1 sequence (Q9QYJ6 1-794): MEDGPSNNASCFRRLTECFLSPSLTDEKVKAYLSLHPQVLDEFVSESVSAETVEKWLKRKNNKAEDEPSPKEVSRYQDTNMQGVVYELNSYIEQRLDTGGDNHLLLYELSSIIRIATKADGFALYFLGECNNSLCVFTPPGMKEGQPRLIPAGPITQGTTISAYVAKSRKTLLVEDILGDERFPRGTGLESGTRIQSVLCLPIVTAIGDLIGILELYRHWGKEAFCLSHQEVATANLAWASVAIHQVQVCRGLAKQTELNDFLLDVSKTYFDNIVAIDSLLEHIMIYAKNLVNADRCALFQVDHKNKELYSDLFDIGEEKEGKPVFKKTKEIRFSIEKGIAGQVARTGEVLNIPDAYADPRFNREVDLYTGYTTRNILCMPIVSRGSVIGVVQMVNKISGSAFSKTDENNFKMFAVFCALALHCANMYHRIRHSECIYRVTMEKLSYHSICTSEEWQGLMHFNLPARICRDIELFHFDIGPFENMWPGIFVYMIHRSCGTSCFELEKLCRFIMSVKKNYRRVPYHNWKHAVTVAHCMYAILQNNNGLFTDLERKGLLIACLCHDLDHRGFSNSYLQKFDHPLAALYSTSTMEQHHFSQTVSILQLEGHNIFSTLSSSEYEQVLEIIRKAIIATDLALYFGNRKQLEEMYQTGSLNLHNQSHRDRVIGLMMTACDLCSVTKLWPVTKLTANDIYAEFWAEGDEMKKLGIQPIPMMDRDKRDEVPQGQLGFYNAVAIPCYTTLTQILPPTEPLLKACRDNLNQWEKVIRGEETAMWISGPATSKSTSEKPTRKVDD
Assay: PDE10 enzyme inhibition, [3H]cAMP scintillation proximity assay
Type: biochemical
Details: rat PDE10A from Sf9 cells, 20 nM [3H]cAMP, SPA beads, 20 minute incubation at room temperature
Procedure: Compounds of the present invention were evaluated for ability to inhibit PDE10 enzyme with the following Assay procedure
The enzyme used in the procedure was cloned rat PDE10A full-length enzyme grown in transfected Sf9 insect cells. Cloned enzyme was extracted from homogenized cell pellets and stored frozen in homogenizing buffer until use. Compounds were initially dissolved in 100% DMSO and diluted out in 20 percent DMSO/water solution. Final concentration of DMSO in the assay was 2 percent as compounds were tested in triplicate in 96 well plates. Compound solution was placed in well, then tritiated cyclic AMP (New England Nuclear NET275) in assay buffer was added at 20 nM concentration. Then PDE10 enzyme in assay buffer of 50 mM Tris, 8.3 mM MgCl2, pH 7.5 at room temperature was added for a final assay volume of 100 ul. Concentration of enzyme was added such that less than 10 percent of [3H]cAMP at 20 nM was converted to detectable end product, [3H]AMP bound to SPA (Scintillation Proximity Assay) beads. Phosphodiesterase scintillation proximity yttrium silicate beads from Amersham Biosciences (RPNQ0150) were added (50 ul at 20 mg/ml) after a 20 minute incubation at room temperature. Zinc sulphate as a component of the beads stops the phosphodiesterase reaction.
Non-specific binding to SPA beads was determined by addition of 1 uM papaverine. Total conversion by enzyme without inhibitor of [3H]cAMP to [3H]AMP, as detected by scintillation of [3H]AMP bound to yttrium silicate beads, was determined in the presence of vehicle-only.

| SMILES | IC50 [nM] |
| --- | --- |
| COc1ccc(-n2cc(-c3nccs3)nc2-c2ccc(-n3ccc4cccnc43)cc2)cn1 [Example 29, 1-(4-(1-(6-methoxypyridin-3-yl)-4-(thiazol-2-yl)-1H-imidazol-2-yl)phenyl)-1H-pyrrolo[2,3-b]pyridine] | 0.383 |
| CN(C)c1ccc(-n2cc(-c3nccs3)nc2-c2ccc(-n3ccc4cccnc43)cc2)cn1 [Example 30, 5-(2-(4-(1H-pyrrolo[2,3-b]pyridin-1-yl)phenyl)-4-(thiazol-2-yl)-1H-imidazol-1-yl)-N,N′-dimethylpyridin-2-mine] | 0.607 |
| CNCCc1ccc(-n2cc(-c3nccs3)nc2-c2ccc(-n3ccc4cccnc43)cc2)cc1 [Example 31] | 6.63 |
| FC(F)(F)c1ccc(-n2cc(-c3nccs3)nc2-c2ccc(-n3ccc4cccnc43)cc2)cn1 [Example 32, 1-(4-(1-(6-(trifluoromethyl)pyridin-3-yl)-4-(thiazol-2-yl)-1H-imidazol-2-yl)phenyl)-1H-pyrrolo[2,3-b]pyridine] | 2.13 |
| CNCc1ccc(-n2cc(-c3nccs3)nc2-c2ccc(-n3ccc4cccnc43)cc2)cc1 [Example 33, (4-(2-(4-(1H-pyrrolo[2,3-b]pyridin-1-yl)phenyl)-4-(thiazol-2-yl)-1H-imidazol-1-yl)phenyl-N-methylmethanamine Hydrochloride] | 14.1 |
| c1cnc2c(c1)ccn2-c1ccc(-c2nc(-c3nccs3)cn2-c2ccc(N3CCOCC3)nc2)cc1 [Example 34, 1-(4-(1-(6-morpholinopyridin-3-yl)-4-(thiazol-2-yl)-1H-imidazol-2-yl)phenyl)-1H-pyrrolo[2,3-b]pyridine] | 0.436 |
| c1ccc(-c2cn(-c3cccnc3)c(-c3ccc(-n4ncc5ccccc54)cc3)n2)nc1 [Example 35, 1-(4-(4-(pyridin-2-yl)-1-(pyridin-3-yl)-1H-imidazol-2-yl)phenyl)-1H-indazole] | 27.8 |
| c1ccc(-c2cn(-c3cccnc3)c(-c3ccc(-n4ccc5ccccc54)cc3)n2)nc1 [Example 36, 1-(4-(4-(pyridin-2-yl)-1-(pyridin-3-yl)-1H-imidazol-2-yl)phenyl)-1H-indole] | 281 |
| Fc1cccc2ccn(-c3ccc(-c4nc(-c5ccccn5)cn4-c4cccnc4)cc3)c12 [Example 37] | 30.8 |
| Fc1c(F)c(F)c2c(ccn2-c2ccc(-c3nc(-c4ccccn4)cn3-c3cccnc3)cc2)c1F [Example 38, 4,5,6,7-tetratfluoro-1-(4-(4-(pyridin-2-yl)-1-(pyridin-3-yl)-1H-imidazol-2-yl)phenyl)-1H-indole] | 170 |
| Clc1cccc2c1ccn2-c1ccc(-c2nc(-c3ccccn3)cn2-c2cccnc2)cc1 [Example 39, 4-chloro-1-(4-(4-(pyridin-2-yl)-1-(pyridin-3-yl)-1H-imidazol-2-y TFA salt] | 113 |
| N#Cc1cccc2c1ccn2-c1ccc(-c2nc(-c3ccccn3)cn2-c2cccnc2)cc1 [Example 40, 1-(4-(4-(pyridin-2-yl)-1-(pyridin-3-yl)-1H-imidazol-2-yl)phenyl)-1H-indole-4-carbonitrile bis-TFA salt] | 65.4 |
| Cc1cn(-c2ccc(-c3nc(-c4ccccn4)cn3-c3cccnc3)cc2)cn1 [Example 41, 3-(2-(4-(4-methyl-1H-imidazol-1-yl)phenyl)-4-(pyridin-2-yl)-1H-imidazol-1-yl)pyridine] | 293 |
| c1ccc(-c2cn(-c3cccnc3)c(-c3ccc(-n4nnc5ccccc54)cc3)n2)nc1 [Example 42, 1-(4-(4-(pyridin-2-yl)-1-(pyridin-3-yl)-1H-imidazol-2-yl)phenyl)-1H-benzo[d][1,2,3]triazole bis-TFA salt] | 67.8 |
| c1ccc(-c2cn(-c3cccnc3)c(-c3ccc(-n4c(-c5ccccn5)nc5ccccc54)cc3)n2)nc1 [Example 43, 2-(pyridin-2-yl)-1-(4-(4-(pyridin-2-yl)-1-(pyridin-3-yl)-1H-imidazol-2-yl)phenyl)-1H-benzo[d]imidazole] | 33.1 |
| c1ccc(-c2cn(-c3cccnc3)c(-c3ccc(-n4ccnc4)cc3)n2)nc1 [Example 44, 3-(2-(4-(1H-imidazol-1-yl)phenyl)-4-(pyridin-2-yl)-1H-imidazol-1-yl)pyridine] | 522 |
| c1ccc(-c2cn(-c3cccnc3)c(-c3ccc(-n4cnc5ccccc54)cc3)n2)nc1 [Example 45, 1-(4-(4-(pyridin-2-yl)-1-(pyridin-3-yl)-1H-imidazol-2-yl)phenyl)-1H-benzo[d]imidazole] | 97.8 |
| Cc1ccc(-n2cc(-c3ccccn3)nc2-c2ccc(-n3ccc4nccnc43)cc2)cn1 [Example 50, 5-(4-(1-(6-methylpyridin-3-yl)-4-(pyridin-2-yl)-1H-imidazol-2-yl)phenyl)-5H-pyrrolo[3,2-b]pyrazine] | < 3.47 |
| c1ccc(-c2cn(-c3cccnc3)c(-c3ccc(-n4nnc5cccnc54)cc3)n2)nc1 [Example 51, 3(4-(4-(pyridin-2-yl)-1-(pyridin-3-yl)-1H-imidazol-2-yl)phenyl)-3H-[1,2,3]triazole[4,5-b]pyridine bis-TFA salt] | 11.5 |
| Cc1ccc(-n2cc(-c3ccccn3)nc2-c2ccc(-n3ccc4ncccc43)cc2)cn1 [Example 52, 1-(4-(1-(6-methylpyridin-3-yl)-4-(pyridin-2-yl)-1H-imidazol-2-yl)phenyl)-1H-pyrrolo[3,2-b]pyridine] | 9.32 |
| Cc1ccc(-n2cc(-c3ccccn3)nc2-c2ccc(-n3ccc4ccncc43)cc2)cn1 [Example 53] | 5.69 |
| Cc1ccc(-n2cc(-c3ccccn3)nc2-c2ccc(-n3ccc4cnccc43)cc2)cn1 [Example 54, 1-(4-(1-(6-methylpyridine-3-yl)-4-(pyridin-2-yl)-1H-imidazol-2-yl)phenyl)-1H-pyrrolo[3,2-c]pyridine] | 5.82 |
| Cc1ccc(-n2cc(-c3ccccn3)nc2-c2ccc(-n3cnc4cncnc43)cc2)cn1 [Example 55, 9-(4-(1-(6-methylpyridin-3-yl)-4-(pyridin-2-yl)-1H-imidazol-2-yl)phenyl-9H-purine and 7-(4-(1-(6-methylpyridin-3-yl)-4-pyridin-2-yl)-1H-imidazol-2-yl))phenyl)-7H-purine] | 10.2 |
| Cc1ccc(-n2cc(-c3ccccn3)nc2-c2ccc(-n3ncc4ccncc43)cc2)cn1 [Example 56, 1-(4-(1-(6-methylpyridin-3-yl)-4-(pyridin-2-yl)-1H-imidazol-2-yl)phenyl)-1H-pyrazolo[3,4-]pyridine] | 6.44 |
| Cc1ccc(-n2cc(-c3ccccn3)nc2-c2ccc(-n3c(C)nc4cccnc43)cc2)cn1 [Example 57, 2-methyl-3-(4-(1-(6-methylpyridin-3-yl)-4-(pyridin-2-yl)-1H-imidazol-2-yl)phenyl)-3H-imidazo[4,5-b]pyridine] | 1.89 |
| Cc1ccc(-n2cc(-c3ccccn3)nc2-c2ccc(-n3c(C(F)(F)F)nc4cccnc43)cc2)cn1 [Example 58, 2(trifluoromethyl)-3(4-(1-(6-methylpyridin-3-yl)-4-(pyridin-2-yl)-1H-imidazol-2-yl)phenyl)-3H-imidazo[4,5-b]pyridine] | 1.06 |
| Cc1ccc(-n2cc(-c3ccccn3)nc2-c2ccc(-n3c(C(C)C)nc4cccnc43)cc2)cn1 [Example 59, 2-isopropyl-3-(4-(1-(6-methylpyridin-3-yl)-4-(pyridin-2-yl)-1H-imidazol-2-yl)phenyl)-3H-imidazo[4,5-b]pyridine] | 0.831 |
| COc1nc2cccnc2n1-c1ccc(-c2nc(-c3ccccn3)cn2-c2ccc(C)nc2)cc1 [Example 60, 2-methoxy-3-(4-(1-(6-methylpyridin-3-yl)-4-(pyridin-2-yl)-1H-imidazol-2-yl)phenyl)-3H-imidazo[4,5-b]pyridine] | 0.388 |
| Cc1ccc(-n2cc(-c3ncc(C)s3)nc2-c2ccc(-n3ccc4cccnc43)cc2)cn1 [Example 61, 1-(4-(1-(6-methylpyridin-3-yl)-4(5-methylthiazol-2-yl)-1H-imidazol-2-yl)phenyl)-1H-pyrrolo[2,3-b]pyridine] | 54.8 |
